Measurements published in patent US9458181B2, “Cathepsin cysteine protease inhibitors” (Merck Sharp & Dohme Corp., priority 2013, dated 2016).

Tests used:
[1] = biological target: human cathepsin K (UniProt P43236); experiment: Cathepsin K Assay (hrbCat K); type: biochemical; settings: human cathepsin K 0.4 nM, Z-Leu-Arg-AMC 8 μM, pH 5.5, 15 min preincubation; read-out: hrbCat K IP
Outline: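 Human cathepsin K (0.4 nM) in pH 5.5 MES buffer with EDTA, DTT and 10% DMSO was preincubated 15 min at room temperature with compound from a ⅓ dilution series (500-0.025 μM DMSO stocks). Z-Leu-Arg-AMC (8 μM) was then added, and AMC release was followed fluorometrically (Ex 360/Em 460 nm) for 30 min; inhibition was fitted to a dose-response model.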

[2] = biological target: T1, human cathepsin F (Homo sapiens, UniProt Q9UBX1); experiment: Cathepsin F assay (hCat F); type: biochemical; settings: human cathepsin F 10 nM, Z-Phe-Arg-AMC 8 μM, pH 5.5, 15 min preincubation; read-out: hCat F IP
T1 sequence (Q9UBX1 271-484): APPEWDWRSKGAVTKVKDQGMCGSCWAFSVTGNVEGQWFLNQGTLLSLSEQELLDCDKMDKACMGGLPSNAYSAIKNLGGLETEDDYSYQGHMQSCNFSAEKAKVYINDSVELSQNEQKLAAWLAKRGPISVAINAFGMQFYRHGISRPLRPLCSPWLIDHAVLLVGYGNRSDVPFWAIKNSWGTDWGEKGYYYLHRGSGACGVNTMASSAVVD
Outline: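 Human cathepsin F (10 nM) in 50 mM MES pH 5.5, 2.5 mM EDTA, 2.5 mM DTT, 10% DMSO was preincubated 15 min at RT with compounds from a ⅓ DMSO dilution series (500–0.025 μM stocks). Z-Phe-Arg-AMC was added (8 μM as added), and AMC release was read by fluorescence (360/460 nm) for 20 min. Percent inhibition was fitted to a dose-response model.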

Compound N#Cc1ccccc1-c1nc(-c2ccc(N3CCS(=O)(=O)CC3)cc2)c([C@@H]2CCCC[C@H]2C(=O)NC2(C#N)CC2)o1 [Example 105, (1R,2R)-N-(1-cyanocyclopropyl)-2-(2-(2-cyanophenyl)-4-(4-(1,1-dioxidothiomorpholino)phenyl)oxazol-5-yl)cyclohexanecarboxamide] has an IC50 [1] of 2.4 nM and an IC50 [2] of 1920 nM.

N#CC1(NC(=O)[C@@H]2CCCC[C@H]2c2oc(-c3ccc(F)cc3F)nc2-c2ccc(N3CCS(=N)(=O)CC3)cc2)CC1 [Example 106, (1R,2R)-N-(1-cyanocyclopropyl)-2-(2-(2,4-difluorophenyl)-4-(4-(1-imino-1-oxidothiomorpholino)phenyl)oxazol-5-yl)cyclohexanecarboxamide] gave an IC50 [1] of 1.59 nM and an IC50 [2] of 192 nM.

C[C@@H]1CC(F)(F)CC[C@@H]1c1nc(-c2ccc(N3CCS(=O)(=O)CC3)cc2)c([C@@H]2CCCC[C@H]2C(=O)NC2(C#N)CC2)o1 [Example 107, (1R,2R)-N-(1-cyanocyclopropyl)-2-(2-((1S,2R)-4,4-difluoro-2-methylcyclohexyl)-4-(4-(1,1-dioxidothiomorpholino)phenyl)oxazol-5-yl)cyclohexanecarboxamide] gave an IC50 [1] of 2.31 nM and an IC50 [2] of 1290 nM.

C[C@H]1CC(F)(F)CC[C@@H]1c1nc(-c2ccc(N3CCS(=O)(=O)CC3)cc2)c([C@@H]2CCCC[C@H]2C(=O)NC2(C#N)CC2)o1 [Example 108, (1R,2R)-N-(1-cyanocyclopropyl)-2-(2-((1S,2S)-4,4-difluoro-2-methylcyclohexyl)-4-(4-(1,1-dioxidothiomorpholino)phenyl)oxazol-5-yl)cyclohexanecarboxamide] was tested, and the IC50 [1] was 2.08 nM and the IC50 [2] was 1390 nM.

With N#CC1(NC(=O)[C@@H]2CCCC[C@H]2c2oc(C3(C(F)(F)F)CC3)nc2-c2ccc(N3CCS(=O)(=O)CC3)cc2)CC1 [Example 110, (1R,2R)-N-(1-cyanocyclopropyl)-2-(4-(4-(1,1-dioxidothiomorpholino)phenyl)-2-(1-(trifluoromethyl)cyclopropyl)oxazol-5-yl)cyclohexanecarboxamide] the IC50 [1] was 1.1 nM and the IC50 [2] was 931 nM.

N#CCNC(=O)[C@@H]1CCCC[C@H]1c1oc(-c2ccc(F)cc2)nc1-c1ccc(N2CCS(=O)(=O)CC2)cc1 [Example 112, (1R,2R)-N-(cyanomethyl)-2-(4-(4-(1,1-dioxidothiomorpholino)phenyl)-2-(4-fluorophenyl)oxazol-5-yl)cyclohexanecarboxamide] was tested, and the IC50 [1] was 0.73 nM and the IC50 [2] was 126 nM.

Work on CC1(C)C(c2nc(-c3ccc(N4CCS(=O)(=O)CC4)cc3)c([C@@H]3CCCC[C@H]3C(=O)NC3(C#N)CC3)o2)C1(C)C [Example 113, (1R,2R)-N-(1-cyanocyclopropyl)-2-(4-(4-(1,1-dioxidothiomorpholino)phenyl)-2-(2,2,3,3-tetramethylcyclopropyl)oxazol-5-yl)cyclohexanecarboxamide] yielded an IC50 [1] of 4.21 nM and an IC50 [2] of 2450 nM.

Work on CC(C)(c1nc(-c2ccc(N3CCS(=O)(=O)CC3)cc2)c([C@@H]2CCCC[C@H]2C(=O)NC2(C#N)CC2)o1)C(F)(F)F [Example 115, (1R,2R)-N-(1-cyanocyclopropyl)-2-(4-(4-(1,1-dioxidothiomorpholino)phenyl)-2-(1,1,1-trifluoro-2-methylpropan-2-yl)oxazol-5-yl)cyclohexanecarboxamide] yielded an IC50 [1] of 1.34 nM and an IC50 [2] of 1770 nM.

With N#CC1(NC(=O)[C@@H]2CC(F)(F)CC[C@H]2c2oc(C(F)(F)C(F)(F)F)nc2-c2ccc(C(=O)N3CCOCC3)cc2)CC1 [Example 119, (1R,2R)-N-(1-cyanocyclopropyl)-5,5-difluoro-2-(4-(4-(morpholine-4-carbonyl)phenyl)-2-(perfluoroethyl)oxazol-5-yl)cyclohexanecarboxamide] the IC50 [1] was 1.04 nM and the IC50 [2] was 306 nM.

With N#C[C@H](NC(=O)[C@@H]1CCCC[C@H]1c1oc(-c2ccc(F)cc2)nc1-c1ccc(N2CCS(=O)(=O)CC2)cc1)C1CCOCC1 [Example 127, (1R,2R)-N-((R)-cyano(tetrahydro-2H-pyran-4-yl)methyl)-2-(4-(4-(1,1-dioxidothiomorpholino)phenyl)-2-(4-fluorophenyl)oxazol-5-yl)cyclohexanecarboxamide] the IC50 [1] was 48.5 nM and the IC50 [2] was at least 10000 nM.

N#C[C@@H](NC(=O)[C@@H]1CCCC[C@H]1c1oc(-c2ccc(F)cc2)nc1-c1ccc(N2CCS(=O)(=O)CC2)cc1)C1CCOCC1 [Example 128, (1R,2R)-N-((S)-cyano(tetrahydro-2H-pyran-4-yl)methyl)-2-(4-(4-(1,1-dioxidothiomorpholino)phenyl)-2-(4-fluorophenyl)oxazol-5-yl)cyclohexanecarboxamide] showed an IC50 [1] of 1.94 nM and an IC50 [2] of 692 nM.

Compound CS(=O)(=O)N1CCN(C(=O)c2ccc(-c3nc(-c4ccc(F)cc4F)oc3[C@@H]3CCCC[C@H]3C(=O)NC3(C#N)CC3)cc2)CC1 [Example 129, (1R,2R)-N-(1-cyanocyclopropyl)-2-(2-(2,4-difluorophenyl)-4-(4-(4-(mcthylsulfonyl)piperazine-1-carbonyl)phenyl)oxazol-5-yl)cyclohexanecarboxamide] has an IC50 [1] of 9.12 nM and an IC50 [2] of 3930 nM.

For N#CC1(NC(=O)[C@@H]2CCCC[C@H]2c2oc(C(F)(F)c3ccccc3)nc2-c2ccc(N3CCS(=O)(=O)CC3)cc2)CC1 [Example 130, (1R,2R)-N-(1-cyanocyclopropyl)-2-(2-(difluoro(phenyl)methyl)-4-(4-(1,1-dioxidothiomorpholino)phenyl)oxazol-5-yl)cyclohexanecarboxamide], the IC50 [1] was 1.25 nM and the IC50 [2] was 70 nM.

For N#CC1(NC(=O)[C@@H]2CCCC[C@H]2c2oc(-c3ccc(F)cc3)nc2-c2ccc(N3CC[S+]([O-])CC3)cc2)CC1 [Example 135, (1R,2R)-N-(1-cyanocyclopropyl)-2-(2-(4-fluorophenyl)-4-(4-(1-oxidothiomorpholino)phenyl)oxazol-5-yl)cyclohexanecarboxamide], the IC50 [1] was 1.39 nM and the IC50 [2] was 458 nM.

For N#CCNC(=O)[C@@H]1CC(F)(F)CC[C@H]1c1oc(C(F)(F)C(F)(F)F)nc1-c1ccc(C(=O)N2CCOCC2)cc1 [Example 136, (1R,2R)-N-(cyanomethyl)-5,5-difluoro-2-(4-(4-(morpholine-4-carbonyl)phenyl)-2-(perfluoroethyl)oxazol-5-yl)cyclohexanecarboxamide], the IC50 [1] was 0.74 nM and the IC50 [2] was 319 nM.

Work on C[C@@H](C#N)NC(=O)[C@@H]1CC(F)(F)CC[C@H]1c1oc(C(F)(F)C(F)(F)F)nc1-c1ccc(C(=O)N2CCOCC2)cc1 [Example 137, (1R,2R)-N-((S)-1-cyanoethyl)-5,5-difluoro-2-(4-(4-(morpholine-4-carbonyl)phenyl)-2-(perfluoroethyl)oxazol-5-yl)cyclohexanecarboxamide] yielded an IC50 [1] of 0.39 nM and an IC50 [2] of 295 nM.

Work on N#CC1(NC(=O)[C@@H]2CCC(F)(F)C[C@H]2c2oc(-c3ccc(F)cc3)nc2-c2ccc(N3CCS(=O)(=O)CC3)cc2)CC1 [Example 139, (1R,2R)-N-(1-cyanocyclopropyl)-2-(4-(4-(1,1-dioxidothiomorpholino)phenyl)-2-(4-fluorophenyl)oxazol-5-yl)-4,4-difluorocyclohexane-carboxamide] yielded an IC50 [1] of 3.84 nM and an IC50 [2] of 2420 nM.

For CS(=O)(=O)N1CCN(C(=O)c2ccc(-c3nc(C(F)(F)C(F)(F)F)oc3[C@@H]3CCC(F)(F)C[C@H]3C(=O)NC3(C#N)CC3)cc2)CC1 [Example 140, (1R,2R)-N-(1-cyanocyclopropyl)-5,5-difluoro-2-(4-(4-(4-(methylsulfonyl)piperazine-1-carbonyl)phenyl)-2-(perfluoroethyl)oxazol-5-yl)cyclohexanecarboxamide], the IC50 [1] was 1.93 nM and the IC50 [2] was 372 nM.

With C[C@@H](C#N)NC(=O)[C@@H]1CCCC[C@H]1c1oc(-c2ccc(F)cc2)nc1-c1ccc(N2CC[S+]([O-])CC2)cc1 [Example 141, (1R,2R)-N-((S)-1-cyanoethyl)-2-(2-(4-fluorophenyl)-4-(4-(1-oxidothiomorpholino)phenyl)oxazol-5-yl)cyclohexanecarboxamide] the IC50 [1] was 0.9 nM and the IC50 [2] was 167 nM.

N#CC1(NC(=O)[C@@H]2C[C@@H](F)CC[C@H]2c2oc(C(F)(F)F)nc2-c2ccc(N3CCS(=O)(=O)CC3)cc2)CC1 [Example 146, (1R,2R,5S)-N-(1-cyanocyclopropyl)-2-(4-(4-(1,1-dioxidothiomorpholino)phenyl)-2-(trifluoromethyl)oxazol-5-yl)-5-fluorocyclohexane-carboxamide] gave an IC50 [1] of 1.92 nM and an IC50 [2] of 352 nM.

In the case of CC(C)(C)c1nc(-c2ccc(N3CCS(=O)(=O)CC3)cc2)c([C@@H]2CC[C@H](F)C[C@H]2C(=O)NC2(C#N)CC2)o1 [Example 147, (1R,2R,5S)-2-(2-(tert-butyl)-4-(4-(1,1-dioxidothiomorpholino)phenyl)oxazol-5-yl)-N-(1-cyanocyclopropyl)-5-fluorocyclohexane-carboxamide], the IC50 [1] is reported as 1.5 nM and the IC50 [2] is reported as 2410 nM.

For CC(C)[C@@H](C#N)NC(=O)[C@@H]1CC(F)(F)CC[C@H]1c1oc(C(F)(F)C(F)(F)F)nc1-c1ccc(C(=O)N2CCOCC2)cc1 [Example 148, (1R,2R)-N-((S)-1-cyano-2-methylpropyl)-5,5-difluoro-2-(4-(4-(morpholine-4-carbonyl)phenyl)-2-(perfluoroethyl)oxazol-5-yl)cyclohexanecarboxamide], the IC50 [1] was 1.03 nM and the IC50 [2] was 280 nM.
